From PubChem BioAssay (NCI)
Several values for one entry are separate records, joined by “and”; a condition that tells them apart may be missing. Equal entries are not always repeated.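 All cell lines were grown in 96-well plates and treated with compound for 48 hours. The concentration for 50% growth inhibition is given as GI50. At the TGI there is no net growth.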

Legend:
Experiment in all cases: NCI-60 cell line screen, 48 h
CCRF-CEM leukemia = test system: CCRF-CEM leukemia
DU-145 prostate = test system: DU-145 prostate
EKVX NSCLC = test system: EKVX NSCLC
HCC-2998 colon = test system: HCC-2998 colon
KM12 colon = test system: KM12 colon
SK-MEL-28 melanoma = test system: SK-MEL-28 melanoma
SK-OV-3 ovarian = test system: SK-OV-3 ovarian
SNB-19 CNS = test system: SNB-19 CNS
SR leukemia = test system: SR leukemia
UACC-257 melanoma = test system: UACC-257 melanoma

Row | Compound | GI50 (CCRF-CEM leukemia) | TGI (CCRF-CEM leukemia) | GI50 (DU-145 prostate) | TGI (DU-145 prostate) | GI50 (EKVX NSCLC) | TGI (EKVX NSCLC) | GI50 (HCC-2998 colon) | TGI (HCC-2998 colon) | GI50 (KM12 colon) | TGI (KM12 colon) | GI50 (SK-MEL-28 melanoma) | TGI (SK-MEL-28 melanoma) | GI50 (SK-OV-3 ovarian) | TGI (SK-OV-3 ovarian) | GI50 (SNB-19 CNS) | TGI (SNB-19 CNS) | GI50 (SR leukemia) | TGI (SR leukemia) | GI50 (UACC-257 melanoma) | TGI (UACC-257 melanoma)
1 | O=C(CS(=O)c1nc2ccccc2nc1-c1ccccc1)Nc1ccc(Cl)cc1 (stereo unspecified) | 23.4 µM | 56.8 µM | 25.7 µM | > 100 µM | 29.5 µM | > 100 µM | 28.6 µM | 84.9 µM | 21.7 µM | 55.2 µM | 58.9 µM | > 100 µM | 51.3 µM | > 100 µM | 38.4 µM | > 100 µM | 18.7 µM | 47.6 µM | 24.7 µM | 77.3 µM
2 | CC[C@H](C)C(=O)O[C@H]1CCC=C2C=C[C@H](C)[C@H](CC[C@@H]3C[C@@H](O)CC(=O)O3)[C@H]21 | 34.1 µM | > 100 µM | 51.6 µM | > 100 µM | 7.93 µM | > 100 µM | 36.9 µM | > 100 µM |  | > 100 µM | 15.3 µM | > 100 µM | 5.96 µM | > 100 µM | 3.54 µM | > 100 µM | 3.79 µM | > 59.4 µM | 73.3 µM | > 100 µM
3 | COC(=O)c1cc2c([nH]c3ccccc32)c(-c2nc3ccccc3cc2CO)n1 | 25.5 µM | > 100 µM | > 100 µM | > 100 µM | > 100 µM | > 100 µM | > 100 µM | > 100 µM | > 100 µM | > 100 µM | > 100 µM | > 100 µM | 55.9 µM | > 100 µM | > 100 µM | > 100 µM | > 100 µM | > 100 µM | > 100 µM | > 100 µM
4 | C=C1C(=O)O[C@H]2C3OC3(C)CC/C=C(/C(=O)OC)[C@@H](OC(C)=O)[C@H](OC(=O)C3(C)OC3C)[C@H]12 (stereo partly specified) | 0.173 µM and 0.231 µM | 0.461 µM and 1.15 µM |  | 29 µM | 5.71 µM and 4.57 µM and 3.81 µg/mL | 26.8 µM and 9.61 µg/mL | 3.65 µM and 2.5 µg/mL | 12.4 µM and 4.62 µg/mL | 9.13 µM and 370 nM and 2.36 µg/mL | 1.64 µM and 7.08 µg/mL | 1.06 µM and 1.74 µM and 0.336 µg/mL | 3.55 µM and 9.53 µM and 0.779 µg/mL | 9.25 µM and 26.5 µg/mL | 18.9 µM and 48 µg/mL | 23.1 mg/L | > 7.5 µM and 53.5 µg/mL | 0.248 µM | 0.664 µM and 1.27 µM | 1.42 µM and 0.434 µM | 2.96 µM and 1.33 µM
5 | Cc1cnc(-c2ccc(-c3ccc(NC(=O)Nc4cccc(C(F)(F)F)c4)cc3F)c3c2C(=O)NC3)[nH]1 | 1.31 µM | 18.7 µM | 11.5 µM | 35.6 µM | 26 µM | > 50.6 µM | 28.2 µM | > 59.2 µM | < 0.01 µM | 16.2 µM | 11.5 µM | 37.7 µM | 6.97 µM | 39.7 µM | 17.4 µM | > 53.4 µM | 0.0862 µM | > 59.9 µM | 13.5 µM | > 66 µM
6 | CCc1c2c(nc3ccc(OC(=O)OCc4ccc(B5OC(C)(C)C(C)(C)O5)cc4)cc13)-c1cc3c(c(=O)n1C2)COC(=O)[C@]3(O)CC | < 0.01 µM | > 100 µM | < 0.01 µM | > 53.3 µM | 0.345 µM | > 55.2 µM | 0.0661 µM | 3.86 µM | 0.073 µM | 16.1 µM | 0.262 µM | 7.32 µM | 0.0151 µM | > 100 µM | < 0.01 µM | > 100 µM | < 0.01 µM | > 100 µM | 0.116 µM | 3.22 µM
7 | CC(=O)OCC1OC([S-])C(OC(C)=O)C(OC(C)=O)C1OC(C)=O.[Au+].c1ccc(CN2[CH-]N(Cc3ccccc3)C(c3ccccc3)=C2c2ccccc2)cc1 | 2.65 µM and 0.283 µM | 13.8 µM and 9.52 µM | 2.86 µM and 0.509 µM | 8.09 µM and 3.59 µM | 2.92 µM and 0.523 µM | 9.53 µM and 4.27 µM | 1.64 µM and 0.625 µM | 3.34 µM and 1.9 µM | 4.32 µM and 0.98 µM | 16.9 µM and 5.14 µM | 2.33 µM and 0.468 µM | 5.76 µM and 2.29 µM |  | 26.3 µM and 5.17 µM | 1.7 µM and 0.3 µM | 3.18 µM and 1.18 µM | 2.7 µM and 0.364 µM | 8.26 µM and 47.5 µM | 2.26 µM and 1 µM | 9.22 µM and 3.12 µM
8 | CN(CO)c1nc(N(C)CO)nc(N(C)CO)n1 | 25.5 µM | 73.6 µM | 29 µM | 64.8 µM and 76.5 µM | 41.8 µM | > 81.5 µM and 77.7 µM | 27.9 µM and 25.5 µM | 67.8 µM and 52.4 µM |  | 47.7 µM and 31.8 µM | 18.3 µM | 36.7 µM and 28.4 µM | 59.1 µM | > 82.1 µM and 54.2 µM | 29.8 µM | 45.3 µM and 50.4 µM | 28.4 µM | > 77.1 µM and 1080 µM | 20.6 µM and 21.8 µM | 40.7 µM and 44.4 µM
9 | N#Cc1ccc(O)c(C2=NCC(c3ccc(-c4ccccc4)cc3)O2)c1 (stereo unspecified) | 0.264 µM | > 100 µM | 0.732 µM | 16 µM | 0.342 µM | 10.4 µM | 0.628 µM | 21.6 µM | 0.462 µM | 28.7 µM | 1.34 µM | 43.8 µM | 0.664 µM | 14.4 µM | 0.489 µM | 26.4 µM | 0.529 µM | > 100 µM | 1.15 µM | 7.96 µM
10 | CCCCCCCCCCCCCC(=O)NO |  | 6.46 µM |  | 29.6 µM |  | 54.1 µM |  | 28.7 µM |  | 47.2 µM |  | 75.8 µM |  | 73.5 µM |  | 73.2 µM |  | > 100 µM |  | 77.3 µM
11 | Cn1c2ccccc2c2c(=O)n(CCCC(=O)NCCc3cnc[nH]3)c3c(-c4ccccc4)nnn3c21 | 1.51 µM | > 50 µM | 6.88 µM | 13.8 µM | 10 µM | 23.9 µM | 9.51 µM | 19.7 µM | 8.16 µM | 16.9 µM | 8.86 µM | 16.9 µM | 10.2 µM | 18.7 µM | 11.8 µM | 24.1 µM | 4.03 µM | > 50 µM | 12 µM | 21.6 µM
12 | CN1CCN(C(=O)[C@@]2(C)CC[C@]3(C)CC[C@]4(C)C(=CC[C@@H]5[C@@]6(C)CC[C@H](OC(=O)c7cccnc7)C(C)(C)[C@@H]6CC[C@]54C)[C@@H]3C2)CC1 | 2.35 µM | 6.45 µM | 1.81 µM | 3.51 µM | 1.74 µM | 3.86 µM | 1.81 µM | 3.33 µM | 1.9 µM | 3.64 µM | 1.79 µM | 3.34 µM | 10.4 µM | 22 µM | 1.74 µM | 3.53 µM | 0.937 µM | 4.08 µM | 1.83 µM | 3.53 µM
